Assay results: patent US6610248B1, “Disinfectants” (Lonza AG, priority 1999, dated 2003)

Tests used:
[1] = tested on: Pseudomonas aeruginosa ATCC 15442; experiment: Quantitative suspension test EN 1276; assay type: cell-based; conditions: contact time 5 min, water hardness 300 mg/kg CaCO3, 20° C.
Method: (§1) As specified by standard EN 1276, the efficacy of N,N-bis (3-aminopropyl)octylamine (according to the invention) and N,N-bis (3-aminopropyl)dodecylamine (comparison) was determined in the presence of albumin for various test microorganisms. [table]

[2] = tested on: Escherichia coli ATCC 10536; experiment: Quantitative suspension test EN 1276; assay type: cell-based; conditions: contact time 5 min, water hardness 300 mg/kg CaCO3, 20° C.
Method: as §1

[3] = tested on: Staphylococcus aureus ATCC 6538; experiment: Quantitative suspension test EN 1276; assay type: cell-based; conditions: contact time 5 min, water hardness 300 mg/kg CaCO3, 20° C.
Method: as §1

[4] = tested on: Enterococcus hirae ATCC 8043; experiment: Quantitative suspension test EN 1276; assay type: cell-based; conditions: contact time 5 min, water hardness 300 mg/kg CaCO3, 20° C.
Method: as §1

[5] = Determination of foaming (shaken mixing cylinder, foam volume read off); assay type: physicochemical; conditions: 250 ppm in demineralized water, 20° C.
Method: A 250 ml mixing cylinder was filled with 100 ml of solution. After any foam formed in the course of this had disappeared, the sealed cylinder was shaken vigorously vertically for 15 s (approximately 15×) and then placed on a flat support. The volume of the resultant foam was read off at regular time intervals.

[6] = tested on: Mycobacterium terrae ATCC 15755; experiment: Quantitative suspension test using Mycobacterium terrae (Hygiene & Medizin 1997 method); assay type: cell-based; conditions: 0.3% active compound, 20° C., contact time 15 min
Method: Using the method described in Hygiene & Medizin 1997, 22, pp. 278-283, the activity of N,N-bis(3-amino-propyl)octylamine against Mycobacterium terrae ATCC 15755 was determined under differing organic loads. The concentration of active compound was in each case 0.3%, the temperature 20° C. and the contact time 15 min. The common logarithmic reduction in bacterial count was determined each time.

With `CCCCCCCCCCCCN(CCCN)CCCN` [N,N-bis(3-aminopropyl)dodecylamine, reference compound] as the compound, how does the “concentration for log. reduction >5” value ([1]; 0.03% albumin) read?
The value was 0.025%.

And the “concentration for log. reduction >5” value ([1]; 0.3% albumin)?
The value was 0.50%.

What about the “concentration for log. reduction >5” value ([2]; 0.03% albumin) of the same compound?
The value was 0.025%.

And the “concentration for log. reduction >5” value ([2]; 0.3% albumin)?
Its value is 0.025%.

What about the “concentration for log. reduction >5” value ([3]; 0.03% albumin) of the same compound?
The value was 0.05%.

What about the “concentration for log. reduction >5” value ([3]; 0.3% albumin) of the same compound?
Its value is 0.10%.

What about the “concentration for log. reduction >5” value ([4]; 0.03% albumin) of the same compound?
The value was 0.05%.

What about the “concentration for log. reduction >5” value ([4]; 0.3% albumin) of the same compound?
The value was 0.05%.

What about the “foam volume after 10 s” value [5] of the same compound?
Its value is 140 mL.

What about the “foam volume after 60 s” value [5] of the same compound?
The value was 120 mL.

Which results are given for `CCCCCCCCN(CCCN)CCCN` [N,N-bis(3-aminopropyl)octylamine]?
concentration for log. reduction >5 ([1]; 0.03% albumin): 0.05%; concentration for log. reduction >5 ([1]; 0.3% albumin): 0.10%; concentration for log. reduction >5 ([2]; 0.03% albumin): 0.05%; concentration for log. reduction >5 ([2]; 0.3% albumin): 0.05%; concentration for log. reduction >5 ([3]; 0.03% albumin): 0.10%; concentration for log. reduction >5 ([3]; 0.3% albumin): 0.10%; concentration for log. reduction >5 ([4]; 0.03% albumin): 0.10%; concentration for log. reduction >5 ([4]; 0.3% albumin): 0.05%; Log reduction in bacterial count ([6]; load: 0.3% albumin): 4.09; Log reduction in bacterial count ([6]; load: 0.5% sheep's blood): 4.48; Log reduction in bacterial count ([6]; load: none): 4.33; foam volume after 10 s [5]: 20 mL; foam volume after 60 s [5]: virtually completely disappeared; foam volume after a further 10 s ([5]; relative to volume at 10 s): decreased to half
